Measured values as given in article PMC5573760 (Cancer Chemotherapy and Pharmacology, 2017).
Several values for one entry are separate records, joined by “and”; a condition that tells them apart may be missing. Equal values may be shown once.

Legend:
clinical = settings: male, human, in vivo; for clearance: CL (total body clearance); for Tmax: t max; for half-life: t ½ (terminal half-life)
Procedure: All subjects gave written informed consent; the study was conducted at PRA Health Sciences (Zuidlaren, The Netherlands) in accordance with the Declaration of Helsinki and was approved by an accredited institutional ethics committee (Medisch Ethische Toetsings Commissie, Assen, The Netherlands).
Subjects remained fasting until 2-h after the end of the infusion. Volunteers stayed in-house until 14 days after the application and subsequently urine and feces were collected for 24-h on Day 16, 20, 27 and 34 if necessary, cf. below.
Urine was collected pre-dose, at 0–12-h and 12–24 h after the start of the infusion and thereafter over 24-h intervals on Day 2 to Day 14 as well as on Day 16, 20, 27 and 34 (±1 day). Cumulative 24-h fecal samples were collected from Day 1 (day of infusion) to Day 14 and as well as on Day 16, 20, 27 and 34 (±1 day). […] The excreted radioactivity between ambulant visits during the prolongation phase of the clinical study was calculated using interpolation to get a more realistic total excretion value of all subjects (see "Pharmacokinetic analysis").
All samples were frozen at −70 °C and analyzed within 60 days of sample collection.
For blood/plasma ratio determination, total radioactivity in urine and feces well as data from HPLC analysis data from radioactivity measurement by liquid scintillation counting (LSC) were considered. The amount of radioactivity recovered in the excreta (A E) was related to the administered radioactive dose to establish the radioactive balance. Arithmetic means and coefficients of variation (CV) were calculated for these percentages. […] Cumulative excretion was calculated as sum of the collection intervals. The elimination of the total radioactivity in urine and feces for time-points beyond day 14 was performed by log-linear extrapolation between analyzed time-points. Amounts of radioactivity excreted in urine and feces between two ambulant visits were calculated per interpolated day by linear interpolation of log-transformed excretion data separately per matrix (lnA E(interpolated day) = Δdays × [lnA E(Visit i + 1) − lnA E(Visit i)]/[day (Visit i + 1) − day (Visit i)] + lnA E(Visit i), with A E given as amount of radioactivity excreted in matrix per day and Δdays being the difference between the calculated day and the last available visit with A E > 0). In case no feces sample was provided on an ambulant visit, this visit was neglected for interpolation. A similar approach has been described earlier. The concentration/amount for each component of each sample/time-point was calculated by multiplying the total radioactivity concentration/amount of each sample with %-area of each component obtained after off-line HPLC separation. The amount of radioactivity in urine and feces at late time-points where no component was detected was distributed in the same percentage to the component (s) present at the time-point before.
Compartment-free analysis was performed employing WinNonlin software (version 5.3, Pharsight Certara, Princton, NJ, USA).
Pharmacokinetic parameters were evaluated by descriptive data analysis without formal hypothesis testing by calculating either medians (t max, t last) or geometric means and %CV (remaining parameters). Excretion data (urine, feces, total) were evaluated by arithmetic means.

[1] = Mass balance: excretion of radioactivity, copanlisib and metabolites in urine and feces; assay type: in vivo, human; settings: for Amount excreted in feces as this component, arithmetic mean (range): HPLC with off-line radioactivity detection
Procedure: After pooling and homogenization of urine and feces samples per time interval, aliquots were stored at −20 °C for total radioactivity determination and at −70°C for metabolic profiling (including blood/plasma samples). For determination of total radioactivity, samples were analyzed with a Perkin Elmer Tri-Carb™ 3100 TR liquid scintillation analyzer (Perkin Elmer, Waltham, MA, USA) with quenching correction. For metabolite profiling, plasma samples were treated with a mixture of acetonitrile (ACN) +0.2% acetic acid, after shaking and centrifugation, the supernatant was concentrated. Urine and feces samples were treated with solid-phase extraction (Waters HLB 30 mg, 1 mL, Waters, Milford, MA, USA) and liquid–liquid extraction (ACN + 0.2% trifluoroacetic acid/water, 80:20 volume/volume), respectively. Subsequently samples from plasma, urine and feces were analyzed by HPLC-LSC on Synergi Polar 4 µm 150 × 2 mm (Phenomenex, Aschaffenburg, Germany) with off-line radioactivity detection by Microbeta^2™ Plus liquid scintillation counter with Ultima Flo™ AP scintillation fluid (Packard Instrument BV, Groningen, The Netherlands).
Metabolite patterns in plasma, urine and feces were studied by the HPLC method with off-line radioactivity detection described above.
A similar approach has been described earlier.

plasma protein = settings: reversible; cited from earlier work
[2] = tested on: breast Cancer Resistance Protein (BCRP); parameters: method as in Bayer AG, data on file; settings: in vitro; ref Bayer AG, data on file; cited from earlier work
cytochrome P450 3A4 = tested on: cytochrome P450 3A4; parameters: method as in Bayer AG, data on file; settings: in vitro, humans; ref Bayer AG, data on file; cited from earlier work
[3] = cited from earlier work
PI3K-δ = settings: cited from earlier work
[4] = tested on: primary malignant B cell lines; settings: cited from earlier work
[5] = all 6 subjects after individual study release (Day 20–Day 34)
[6] = study release at Day 20 (N = 6)
[7] = study release at Day 27 (N = 5)
[8] = study release at Day 34 (N = 3)

In the case of COc1c(OCCCN2CCOCC2)ccc2c1N=C(NC(=O)c1cnc(N)nc1)N1CCN=C21 [Copanlisib, copanlisib], the “AUC (0–t last) of total radioactivity (%) covered by the component, average” value (clinical) was “about 84%”, the “CL (total body clearance), geometric mean (%CV)” value (clinical; iv) was 24.8 (41.3%) L/h and the “t ½ (terminal half-life), geometric mean (%CV)” value (clinical; iv) was 52.1 (20.9%) h. The “t ½ (terminal half-life), range” value (clinical; iv) was 40.4 to 67.5 h, the clearance (clinical; iv, geometric mean (%CV)) was about 413 mL/min and the clearance (clinical; iv, range) was 237 to 680 mL/min. For the same compound, the Vd (clinical; iv, V z (volume of distribution during terminal phase), geometric mean (%CV)) was about 1870 L, the Vd (clinical; iv, V z, range) was 1250 to 2450 L and the Tmax (clinical; iv, median) was 1 h. The Tmax (clinical; iv, range) was 0.5 to 1 h, the half-life (clinical; iv, geometric mean (%CV)) was 52 h and the half-life (clinical; iv, range) was 40 to 67 h. For the same compound, the “Total radioactivity excreted in feces, arithmetic mean” value [1, 5] was 64.2 (56.7–68.1) % of dose, the “Total radioactivity excreted in feces, range” value [1, 5] was 56.7–68.1% and the “Total radioactivity excreted in urine, arithmetic mean” value [1, 5] was 21.7 (17.0–27.4) % of dose. For the same compound, the “Total radioactivity excreted in urine, range” value [1, 5] was 17.0–27.4%, the “Total radioactivity recovery in urine and feces, mean” value [1, 5] was 86% and 85.9 ± 3.4% and about 86% and the “Total radioactivity recovery in urine and feces, range” value [1, 5] was 81.7–91.0%. The “Amount excreted in feces as this component, arithmetic mean (range)” value ([1]; 6 subjects) was 30.1 (16.8–37.9) % of dose, the “Amount excreted in feces as this component, arithmetic mean (range)” value ([1]; 6 subjects, listed as copanlisib) was 30 % of dose and the “Dose cleared via metabolism” value ([1]; in vivo) was “about 41%”. The “Renal clearance (A e,ur/AUC) as share of total body clearance” value ([1]; in vivo) was “about 15%”, the “Share of observed renal clearance accounted for by passive renal filtration” value ([1]; in vivo) was “about one to two-thirds” and the “Excreted radioactivity in feces, mean” value [1, 6] was 61.0 ± 4.1%. The “Excreted radioactivity in feces, range” value [1, 6] was 54.8–66.7%, the “Excreted radioactivity in urine, mean” value [1, 6] was 20.0 ± 3.5% and the “Excreted radioactivity in urine, range” value [1, 6] was 16.3–26.5%. The “Excreted total radioactivity in urine and feces, mean” value (from here on “Excreted total radioactivity … mean”) [1, 6] was 81.0 ± 2.1%, the “Excreted total radioactivity in urine and feces, range” value (“Excreted total radioactivity … range” below) [1, 6] was 77.8–83.0% and the “Excreted radioactivity in feces, mean” value [1, 7] was 63.4 ± 4.5%. The “Excreted radioactivity in feces, range” value [1, 7] was 56.7–67.4%, the “Excreted radioactivity in urine, mean” value [1, 7] was 21.5 ± 3.9% and the “Excreted radioactivity in urine, range” value [1, 7] was 17.0–27.4%. The “Excreted total radioactivity … mean” value [1, 7] was 84.9 ± 2.3%, the “Excreted total radioactivity … range” value [1, 7] was 82.3–88.5% and the “Excreted radioactivity in feces, mean” value [1, 8] was 66.1 ± 3.2%. For the same compound, the “Excreted radioactivity in feces, range” value [1, 8] was 62.4–68.1%, the “Excreted radioactivity in urine, mean” value [1, 8] was 22.2 ± 1.4% and the “Excreted radioactivity in urine, range” value [1, 8] was 20.6–23.1%. The “Excreted total radioactivity … mean” value [1, 8] was 88.3 ± 2.9%, the “Excreted total radioactivity … range” value [1, 8] was 85.2–91.0% and the “Radioactivity excreted that could be assigned to known structures” value ([1]; urine and feces) was “Over 98%”. For the same compound, the “Amount of dose recovered as this component in urine and feces combined” value ([1]; urine plus feces, 6 subjects) was 45.1 % of dose, the “Amount of dose recovered as this component in urine and feces combined, range” value ([1]; urine plus feces, range of 6 subjects) was 33.3–53.8% and the “free fraction (fraction unbound in plasma), plasma protein binding” value (plasma protein) was 15.8%. The “Substrate of efflux transporter BCRP” value [2] was “substrate”, the “Involvement of cytochrome P450 3A4 in the primary biotransformation step” value (cytochrome P450 3A4) was “predominant involvement” and the “mean systemic plasma clearance” value ([3]; %CV 51.2, dose escalation study) was 18.9 L/h. The “Accumulation and time dependency after once weekly dosing” value ([3]; PK on Cycle 1 Days 1 and 15 and Cycle 3 Day 15, dose escalation study) was “No accumulation and no time dependency”, the “Half-life, range (known PK of copanlisib)” value [3] was 16.9 to 72.7 h and the “Dose dependence of C max and AUC (0–25)” value ([3]; dose range 0.1–1.2 mg/kg (5–93 mg total dose), dose escalation study) was “dose proportional increases”. For the same compound, the “terminal phase half-life (t 1/2)” value ([3]; human, in vivo, 0.8 mg/kg) was 39.1 h, the volume of distribution ([3]; human, in vivo, 0.8 mg/kg) was 871 L and the PI3K-δ inhibitory activity (PI3K-δ) was “predominant PI3K-α and PI3K-δ inhibitory activity”. The Tumor cell death [4] was “induce tumor cell death including apoptosis”.
